# US11414385B2, “Compounds and methods for treating, detecting, and identifying compounds to treat apicomplexan parasitic diseases” (The University of Chicago, priority 2015, dated 2022)
# Like-named read-outs stand apart in the source and are kept apart here.
# How the values were obtained:
# [1] = system: T. gondii bradyzoites (EGS strain); assay: EGS strain bradyzoite assay (cysts in HFF, dolichos/BAG1 staining); type: cell-based, Toxoplasma gondii; conditions: for IC50: EGS strain
# Description: (§1) HFF cells were grown in IMDM (1×, [+] glutamine, [+] 25 mM HEPES, [+] Phenol red, 10% FBS, [Gibco, Denmark]) on removable, sterile glass disks in the bottom of a clear, flat-bottomed 24-well plate. Cultures were infected with 3×10^4 parasites (EGS strain) per well, in 0.5 mL media and plate was returned to incubator at 37° C. overnight. The following day, the media was removed and clear IMDM and compounds were added to making various concentrations of the drug, to a total volume of 0.5 mL. Two wells were filled with media only, as a control. Plates were returned to the 37° C. incubator for 72 hours.
# Efficacy was determined following fixation. Staining was used to determine the numbers of cysts in cultures without and with treatment with the test compounds. Cells were fixed using 4% paraformaldehyde and stained with Fluorescein-labeled Dolichos Biflorus Agglutinin, DAPI, and anti-BAG1, and anti-SAG1. Disks were removed and mounted onto glass slides and visualized using microscopy (Nikon Tl7). Slides were also scanned using a CRi Pannoramic Scan Whole Slide Scanner and viewed using Panoramic Viewer Software.
# as §1, with “[gibco,” for “[Gibco,”, “2” for “Two”, “72 hours, and checked once every 24” for “72”, “hours. If tachyzoites were visible in the control before 72 hours, the cells were fixed and stained.” for “hours.”
# Cells were fixed using 4% paraformaldehyde and stained with Fluorescein-labeled Dolichos Biflorus Agglutinin, DAPI, and BAG1. Disks were removed and mounted onto glass slides and visualized using microscopy (Nikon Tl7). Slides were scanned using a CRi Pannoramic Scan Whole Slide Scanner and viewed using Panoramic Viewer Software. Effects of the compounds were quantified by counting cysts in the controls and treated cells. Cysts and persisting organisms were counted in a representative field of view and then multiplied by a factor determined by the total area of the disk in order to estimate the number of cysts and organisms in each condition.
# HFF cells were grown in IMDM (1×, [+] glutamine, [+] 25 mM HEPES, [+] Phenol red, 10% FBS, [gibco, Denmark]) on removable, sterile glass disks in the bottom of a clear, flat-bottomed 24-well plate. Cultures were infected with 3×10^4 parasites (EGS strain) per well, in 0.5 mL media and plate was returned to incubator at 37° C. overnight. The following day, the media was removed and clear IMDM and compounds were added to making various concentrations of the drug, to a total volume of 0.5 mL. 2 wells were filled with media only, as a control. Plates were returned to the 37° C. incubator for 72 hours, and checked once every 24 hours. If tachyzoites were visible in the control before 72 hours, the cells were fixed and stained. Cells were fixed using 4% paraformaldehyde and stained with Fluorescein-labeled Dolichos Biflorus Agglutinin, DAPI, and BAG1. Disks were removed and mounted onto glass slides and visualized using microscopy (Nikon Tl7). Slides were scanned using a CRi Pannoramic Scan Whole Slide Scanner and viewed using Panoramic Viewer Software. Effects of the compounds were quantified by counting cysts in the controls and treated cells. Cysts and persisting organisms were counted in a representative field of view and then multiplied by a factor determined by the total area of the disk in order to estimate the number of cysts and organisms in each condition. Data was collected using Gen5 software. IC50 was calculated by graphical analysis in Excel.
# [2] = system: P. falciparum strains D6, TM91-C235, W2, C2B; assay: Malaria SYBR Green I-Based Fluorescence (MSF) Assay; type: cell-based, Plasmodium falciparum; conditions: Plasmodium falciparum
# Outline: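 SYBR Green I fluorescence, proportional to parasite DNA, served as the proliferation read-out in a plate-based sensitivity assay. It was run on D6 (drug-sensitive), TM91-C235 (multi-drug resistant), W2 (chloroquine-resistant) and C2B (resistant to several drugs, including atovaquone).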
# [3] = Aqueous kinetic solubility pH 7.4; type: physicochemical; conditions: for solubility kinetic: PBS pH 7.4
# [4] = Microsomal metabolic stability, mouse; type: in vitro ADME; conditions: for half-life: mouse, liver microsomes
# in vitro = in vitro ADME; conditions: dog, MDCK-MDR1
# [5] = D6 strain, read-out: Pf D6 IC50
# [6] = PBS, pH 7.4, aqueous buffer, kinetic from dmso stock
compound,measurement,setting,value
"Cc1[nH]c2c(c(=O)c1-c1ccc(Oc3ccc(OC(F)(F)F)cc3)cc1)CCCC2 [JAG21, 2-methyl-3-(4-(4-(trifluoromethoxy)phenoxy)phenyl)-5,6,7,8-tetrahydroquinolin-4(1H)-one]",reduction in the number of true cysts and small organisms,"[1]; 1 μM and 10 μM, EGS",statistically significant reduction
same,IC90,"[1]; Toxoplasma gondii, read-out: IC 90 against bradyzoites",500 nM
same,Pseudocysts,"[1]; part a, 1 μM",29 ± 6
same,Small organisms,"[1]; part a, 1 μM",90.5 ± 33.5
same,True Cysts,"[1]; part a, 1 μM",0.5 ± 0.6
same,Pseudocysts,"[1]; part a, 10 μM",25.5 ± 5.1
same,Small organisms,"[1]; part a, 10 μM",73.25 ± 30.9
same,True Cysts,"[1]; part a, 10 μM",0.25 ± 0.5
same,Pseudocysts,"[1]; part b, 1 μM",2955
same,Small organisms,"[1]; part b, 1 μM",9734
same,True Cysts,"[1]; part b, 1 μM",54
same,Pseudocysts,"[1]; part b, 10 μM",2638
same,Small organisms,"[1]; part b, 10 μM",7309
same,True Cysts,"[1]; part b, 10 μM",22
same,IC50,[2]; [5],14.3 nM
same,IC50,"[2]; including all drug resistant strains, read-out: inhibitor of Plasmodium falciparum",40 to 65 nM
same,solubility kinetic,[3]; [6],7 µM
same,Mouse microsomal stability T1/2,[4],101 min
same,Papp A→B,in vitro,> 10 ×10⁻⁶ cm/s
Cc1[nH]c2c(c(=O)c1-c1ccc(Oc3ccccc3)cc1)CCCC2 [MJM170],reduction of EGS bradyzoites in cysts in vitro,[1],markedly reduces EGS bradyzoites in cysts
same,IC50,"[1]; Toxoplasma gondii, read-out: Brady IC50",1 to 10 µM
same,IC50,"[1]; Toxoplasma gondii, read-out: T. gondii Bradyzoite IC50",4 µM
same,IC50,"[2]; C2B strain (multi-drug resistant, atovaquone resistant), read-out: P. falciparum IC50",10 nM
same,IC50,"[2]; C2B strain, read-out: SYBR Green C2B IC50",10 nM
same,IC50,"[2]; D6 strain (drug sensitive), read-out: P. falciparum IC50",10 nM
same,IC50,[2]; [5],10 nM
same,IC50,"[2]; D6 strain, read-out: SYBR Green D6 IC50",10 nM
same,IC50,"[2]; TM91C235 strain (multi-drug resistant), read-out: P. falciparum IC50",30 nM
same,IC50,"[2]; TM91C235 strain, read-out: SYBR Green C235 IC50",30 nM
same,IC50,"[2]; W2 strain (chloroquine resistant), read-out: P. falciparum IC50",30 nM
same,IC50,"[2]; W2 strain, read-out: SYBR Green W2 IC50",30 nM
same,IC50,"[2]; wild type and multi-drug resistant, all strains, read-out: IC50 against P. falciparum",< 30 nM
same,solubility kinetic,[3],1.97 µM
same,solubility kinetic,[3]; [6],2 µM
same,solubility,"[3]; aqueous buffer, kinetic from dmso stock, 100 mM Phosphate Buffer (pH 7.4)",1.97 µM
same,improved aqueous kinetic solubility (pH 7.4) over ELQ 271,[3]; relative to ELQ 271,10 fold
same,Mouse microsomal stability T1/2,[4],21.0 min
same,half-life,[4]; read-out: Mouse liver microsomes T1/2,21 min
same,half-life,[4]; read-out: Mouse microsomal stability T1/2,20 min
same,Papp A→B,in vitro,32.1 ×10⁻⁶ cm/s
